Activity calls are given as the source filed them. The rule behind the calls is not given here.
test system: Saccharomyces cerevisiae; assay: Potency index, ratio of acarbose IC50 to test compound IC50 for Saccharomyces cerevisiae alpha-glucosidase

Ratio IC50	SMILES
39	CC(C)[C@@H]1CC[C@@H](C)C[C@H]1OC(=O)Cn1cc(COC[C@H]2O[C@H](OCc3cn(CC(=O)O[C@@H]4C[C@H](C)CC[C@H]4C(C)C)nn3)[C@H](OCc3ccccc3)[C@@H](OCc3ccccc3)[C@@H]2OCc2ccccc2)nn1

biological target: not listed separately; assay: Inhibition of Saccharomyces cerevisiae alpha-glucosidase

IC50 [µM]	SMILES
3.86	COc1ccc(OC)c(Cn2cc(COC[C@H]3O[C@H](OCc4cn(Cc5cc(OC)ccc5OC)nn4)[C@H](OCc4ccccc4)[C@@H](OCc4ccccc4)[C@@H]3OCc3ccccc3)nn2)c1
14.1	CCCCCCCC/C=C\CCCCCCCCn1cc(COC[C@H]2O[C@H](OCc3cn(CCCCCCCC/C=C\CCCCCCCC)nn3)[C@H](OCc3ccccc3)[C@@H](OCc3ccccc3)[C@@H]2OCc2ccccc2)nn1
22.9	O=[N+]([O-])c1cccc(Cn2cc(COC[C@H]3O[C@H](OCc4cn(Cc5cccc([N+](=O)[O-])c5)nn4)[C@H](OCc4ccccc4)[C@@H](OCc4ccccc4)[C@@H]3OCc3ccccc3)nn2)c1
50.5	Cc1ccc(OCCn2cc(COC[C@H]3O[C@H](OCc4cn(CCOc5ccc(C)cc5)nn4)[C@H](OCc4ccccc4)[C@@H](OCc4ccccc4)[C@@H]3OCc3ccccc3)nn2)cc1
3.73	CC(C)[C@@H]1CC[C@@H](C)C[C@H]1OC(=O)Cn1cc(COC[C@H]2O[C@H](OCc3cn(CC(=O)O[C@@H]4C[C@H](C)CC[C@H]4C(C)C)nn3)[C@H](OCc3ccccc3)[C@@H](OCc3ccccc3)[C@@H]2OCc2ccccc2)nn1
29.4	c1ccc(CO[C@@H]2[C@@H](OCc3ccccc3)[C@@H](OCc3cn(CCOc4cccc5ccccc45)nn3)O[C@H](COCc3cn(CCOc4cccc5ccccc45)nn3)[C@H]2OCc2ccccc2)cc1
5.68	O=C(Cn1cc(COC[C@H]2O[C@H](OCc3cn(CC(=O)OCc4ccc([N+](=O)[O-])cc4)nn3)[C@H](OCc3ccccc3)[C@@H](OCc3ccccc3)[C@@H]2OCc2ccccc2)nn1)OCc1ccc([N+](=O)[O-])cc1
21.7	O=c1ccc2cc(OCCCCCCn3cc(COC[C@H]4O[C@H](OCc5cn(CCCCCCOc6ccc7oc(=O)ccc7c6)nn5)[C@H](OCc5ccccc5)[C@@H](OCc5ccccc5)[C@@H]4OCc4ccccc4)nn3)ccc2o1
9.98	O=C(Cn1cc(COC[C@H]2O[C@H](OCc3cn(CC(=O)Oc4cccc5ccccc45)nn3)[C@H](OCc3ccccc3)[C@@H](OCc3ccccc3)[C@@H]2OCc2ccccc2)nn1)Oc1cccc2ccccc12
146	C[C@H]1O[C@H](O[C@H]2[C@H](O)[C@@H](O)[C@@H](O[C@H]3[C@H](O)[C@@H](O)C(O)O[C@@H]3CO)O[C@@H]2CO)[C@H](O)[C@@H](O)[C@@H]1N[C@H]1C=C(CO)[C@@H](O)[C@H](O)[C@H]1O (some centres undefined) [ACARBOSE]
53.3	O=[N+]([O-])c1ccc(Cn2cc(COC[C@H]3O[C@H](OCc4cn(Cc5ccc([N+](=O)[O-])cc5)nn4)[C@H](OCc4ccccc4)[C@@H](OCc4ccccc4)[C@@H]3OCc3ccccc3)nn2)cc1
12.1	c1ccc(CO[C@@H]2[C@@H](OCc3ccccc3)[C@@H](OCc3cn(Cc4ccccc4)nn3)O[C@H](COCc3cn(Cc4ccccc4)nn3)[C@H]2OCc2ccccc2)cc1
13.9	c1ccc(CO[C@@H]2[C@@H](OCc3ccccc3)[C@@H](OCc3cn(CCOc4ccc5ccccc5c4)nn3)O[C@H](COCc3cn(CCOc4ccc5ccccc5c4)nn3)[C@H]2OCc2ccccc2)cc1
37.3	Fc1ccc(Cn2cc(COC[C@H]3O[C@H](OCc4cn(Cc5ccc(F)cc5)nn4)[C@H](OCc4ccccc4)[C@@H](OCc4ccccc4)[C@@H]3OCc3ccccc3)nn2)cc1
24.4	c1ccc(CO[C@@H]2[C@@H](OCc3ccccc3)[C@@H](OCc3cn(CCOc4ccccc4)nn3)O[C@H](COCc3cn(CCOc4ccccc4)nn3)[C@H]2OCc2ccccc2)cc1
20.8	O=C1C=C(OCCCCCCn2cc(COC[C@H]3O[C@H](OCc4cn(CCCCCCOC5=CC(=O)Cc6ccccc65)nn4)[C@H](OCc4ccccc4)[C@@H](OCc4ccccc4)[C@@H]3OCc3ccccc3)nn2)c2ccccc2C1

species: Homo sapiens; assay: Competitive inhibition of alpha-glucosidase (unknown origin) by kinetics based analysis

inhibition	SMILES
Active	CC(C)[C@@H]1CC[C@@H](C)C[C@H]1OC(=O)Cn1cc(COC[C@H]2O[C@H](OCc3cn(CC(=O)O[C@@H]4C[C@H](C)CC[C@H]4C(C)C)nn3)[C@H](OCc3ccccc3)[C@@H](OCc3ccccc3)[C@@H]2OCc2ccccc2)nn1

test system: Saccharomyces cerevisiae; assay: Inhibition of Saccharomyces cerevisiae alpha-glucosidase at 0.1 mg/ml

inhibition	SMILES
inactive	c1ccc(CCn2cc(COC[C@H]3O[C@H](OCc4cn(CCc5ccccc5)nn4)[C@H](OCc4ccccc4)[C@@H](OCc4ccccc4)[C@@H]3OCc3ccccc3)nn2)cc1
inactive	O=C(Cn1cc(COC[C@H]2O[C@H](OCc3cn(CC(=O)OC(c4ccccc4)c4ccccc4)nn3)[C@H](OCc3ccccc3)[C@@H](OCc3ccccc3)[C@@H]2OCc2ccccc2)nn1)OC(c1ccccc1)c1ccccc1
inactive	COc1cccc(Cn2cc(COC[C@H]3O[C@H](OCc4cn(Cc5cccc(OC)c5)nn4)[C@H](OCc4ccccc4)[C@@H](OCc4ccccc4)[C@@H]3OCc3ccccc3)nn2)c1
inactive	O=C(Cn1cc(COC[C@H]2O[C@H](OCc3cn(CC(=O)c4cc5ccccc5oc4=O)nn3)[C@H](OCc3ccccc3)[C@@H](OCc3ccccc3)[C@@H]2OCc2ccccc2)nn1)c1cc2ccccc2oc1=O
inactive	COc1cc(COC(=O)Cn2cc(COC[C@H]3O[C@H](OCc4cn(CC(=O)OCc5ccc(OCc6ccccc6)c(OC)c5)nn4)[C@H](OCc4ccccc4)[C@@H](OCc4ccccc4)[C@@H]3OCc3ccccc3)nn2)ccc1OCc1ccccc1
inactive	COc1cc(Cn2cc(COC[C@H]3O[C@H](OCc4cn(Cc5ccc(OCc6ccccc6)c(OC)c5)nn4)[C@H](OCc4ccccc4)[C@@H](OCc4ccccc4)[C@@H]3OCc3ccccc3)nn2)ccc1OCc1ccccc1
inactive	CCCCCCCCCCCCCn1cc(COC[C@H]2O[C@H](OCc3cn(CCCCCCCCCCCCC)nn3)[C@H](OCc3ccccc3)[C@@H](OCc3ccccc3)[C@@H]2OCc2ccccc2)nn1
inactive	C=CCCCCCCCCCn1cc(COC[C@H]2O[C@H](OCc3cn(CCCCCCCCCC=C)nn3)[C@H](OCc3ccccc3)[C@@H](OCc3ccccc3)[C@@H]2OCc2ccccc2)nn1
inactive	C=CCc1ccccc1OCCn1cc(COC[C@H]2O[C@H](OCc3cn(CCOc4ccccc4CC=C)nn3)[C@H](OCc3ccccc3)[C@@H](OCc3ccccc3)[C@@H]2OCc2ccccc2)nn1
inactive	COc1ccc(OC)c(COC(=O)Cn2cc(COC[C@H]3O[C@H](OCc4cn(CC(=O)OCc5cc(OC)ccc5OC)nn4)[C@H](OCc4ccccc4)[C@@H](OCc4ccccc4)[C@@H]3OCc3ccccc3)nn2)c1
inactive	CCCCCCCCCCCCCCCCCCn1cc(COC[C@H]2O[C@H](OCc3cn(CCCCCCCCCCCCCCCCCC)nn3)[C@H](OCc3ccccc3)[C@@H](OCc3ccccc3)[C@@H]2OCc2ccccc2)nn1
inactive	O=C(Cn1cc(COC[C@H]2O[C@H](OCc3cn(CC(=O)OCc4ccccc4)nn3)[C@H](OCc3ccccc3)[C@@H](OCc3ccccc3)[C@@H]2OCc2ccccc2)nn1)OCc1ccccc1
inactive	COc1cccc(COC(=O)Cn2cc(COC[C@H]3O[C@H](OCc4cn(CC(=O)OCc5cccc(OC)c5)nn4)[C@H](OCc4ccccc4)[C@@H](OCc4ccccc4)[C@@H]3OCc3ccccc3)nn2)c1
inactive	COc1ccc(COC(=O)Cn2cc(COC[C@H]3O[C@H](OCc4cn(CC(=O)OCc5ccc(OC)cc5)nn4)[C@H](OCc4ccccc4)[C@@H](OCc4ccccc4)[C@@H]3OCc3ccccc3)nn2)cc1
inactive	Cc1cc(COC(=O)Cn2cc(COC[C@H]3O[C@H](OCc4cn(CC(=O)OCc5ccc(Cl)c(C)c5)nn4)[C@H](OCc4ccccc4)[C@@H](OCc4ccccc4)[C@@H]3OCc3ccccc3)nn2)ccc1Cl
inactive	c1ccc(CO[C@@H]2[C@@H](OCc3ccccc3)[C@@H](OCc3cn(C(c4ccccc4)c4ccccc4)nn3)O[C@H](COCc3cn(C(c4ccccc4)c4ccccc4)nn3)[C@H]2OCc2ccccc2)cc1
